This note sets out measurements from PubChem BioAssay AID330 (DTP/NCI, 2004).

“And” between values parts separate entries of the source, which are not always exact repeats. Equal entries are not always repeated. Toxic doses and inconclusive results are not listed.

In this experiment the test system is P388 leukemia ip, CD2F1 mice, survival T/C. Put plainly: NCI In Vivo Anticancer Drug Screen. Data for tumor model P388 Leukemia (intraperitoneal) in CD2F1 (CDF1) mice. The note with it: endpoint: median survival time, higher = longer survival. An outline of the steps:
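Mice carrying the transplanted tumor received test compound or vehicle. Survival was recorded in each group, and the value is the treated-group measurement divided by that of the vehicle-treated control group.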

[1] abbreviates: dose: 12.5 mg/kg/injection, schedule: Q01DX005 (ip), vehicle: saline with Tween-80.
The mark [2] stands for this setting: dose: 25.0 mg/kg/injection, schedule: Q01DX005 (ip), vehicle: saline with Tween-80.
Setting [3] is: dose: 60.0 mg/kg/injection, schedule: Q01DX005 (ip), vehicle: saline with Tween-80.
[4] abbreviates: dose: 50.0 mg/kg/injection, schedule: Q01DX005 (ip), vehicle: saline with Tween-80.
[5] abbreviates: dose: 100.0 mg/kg/injection, schedule: Q01DX005 (ip), vehicle: saline with Tween-80.
The mark [6] stands for this setting: dose: 200.0 mg/kg/injection, schedule: Q01DX005 (ip), vehicle: saline with Tween-80.
[7] abbreviates: dose: 120.0 mg/kg/injection, schedule: Q01DX005 (ip), vehicle: saline with Tween-80.
Setting [8] is: dose: 240.0 mg/kg/injection, schedule: Q01DX005 (ip), vehicle: saline with Tween-80.
[9] abbreviates: dose: 50.0 mg/kg/injection, schedule: Q01DX009 (ip), vehicle: Klucel (hydroxypropylcellulose) (HPC).
Setting [10] is: dose: 100.0 mg/kg/injection, schedule: Q01DX009 (ip), vehicle: Klucel (hydroxypropylcellulose) (HPC).
Setting [11] is: dose: 200.0 mg/kg/injection, schedule: Q01DX009 (ip), vehicle: Klucel (hydroxypropylcellulose) (HPC).
[12] abbreviates: dose: 50.0 mg/kg/injection, schedule: Q01DX009 (ip), vehicle: saline with Tween-80.
The mark [13] stands for this setting: dose: 100.0 mg/kg/injection, schedule: Q01DX009 (ip), vehicle: saline with Tween-80.
Setting [14] is: dose: 200.0 mg/kg/injection, schedule: Q01DX009 (ip), vehicle: saline with Tween-80.
[15] abbreviates: dose: 50.0 mg/kg/injection, schedule: Q01DX009 (ip), vehicle: saline.
Where [16] appears, read: dose: 100.0 mg/kg/injection, schedule: Q01DX009 (ip), vehicle: saline.
[17] abbreviates: dose: 200.0 mg/kg/injection, schedule: Q01DX009 (ip), vehicle: saline.

Take `Nc1ncnc2c1ncn2C1OCC(O)C1O` (stereo not drawn): the T/C is 119 % of control (dose: 50.0 mg/kg/injection, schedule: Q01DX009 (ip), vehicle: suspension in saline) and 112 % of control (dose: 100.0 mg/kg/injection, schedule: Q01DX009 (ip), vehicle: suspension in saline).
Regarding `CNc1ncnc2c1ccn2C1OC(CO)C(O)C1O` (stereo not drawn), the T/C by setting is: (dose: 6.25 mg/kg/injection, schedule: Q01DX005 (ip), vehicle: saline with Tween-80) 100 % of control; under setting [1], 108 % of control; under setting [2], 100 % of control.
Regarding `Cc1csnn1`, the T/C was 105 % of control (dose: 15.0 mg/kg/injection, schedule: Q01DX005 (ip), vehicle: saline with Tween-80); 100 % of control (dose: 30.0 mg/kg/injection, schedule: Q01DX005 (ip), vehicle: saline with Tween-80); 102 % of control under setting [3].
With `CS(=O)CC(=N\N)/C(CS(C)=O)=N/N` (stereo not drawn), the T/C is 100 % of control (dose: 60.0 mg/kg/injection, schedule: Q01DX005 (ip), vehicle: saline); 95 % of control (dose: 120.0 mg/kg/injection, schedule: Q01DX005 (ip), vehicle: saline); 102 % of control (dose: 240.0 mg/kg/injection, schedule: Q01DX005 (ip), vehicle: saline).
Turning to `CC(=O)c1cn[nH]c1NC(=O)c1ccccc1`, the T/C (dose: 8.75 mg/kg/injection, schedule: Q01DX005 (ip), vehicle: Klucel (hydroxypropylcellulose) (HPC)) was 103 % of control; the T/C (dose: 17.5 mg/kg/injection, schedule: Q01DX005 (ip), vehicle: Klucel (hydroxypropylcellulose) (HPC)) is 103 % of control; the T/C (dose: 35.0 mg/kg/injection, schedule: Q01DX005 (ip), vehicle: Klucel (hydroxypropylcellulose) (HPC)) was 95 % of control.
Take `COc1ccc(S(=O)(=O)N/N=C/c2cc([N+](=O)[O-])ccc2O)cc1`: the T/C was 101 % of control under setting [4], 107 % of control under setting [5] and 119 % of control under setting [6].
With `Cc1ccccc1NC(=O)Oc1ccc(Cl)cc1C(=O)c1ccccc1`, the T/C under setting [3] was 100 % of control, the T/C under setting [7] was 109 % of control and the T/C under setting [8] is 103 % of control.
For the compound `CCc1nn(Cc2ccccc2)c2nc(C)c(CCc3ccccc3)c(Cl)c12`, the T/C by setting is: (dose: 60.0 mg/kg/injection, schedule: Q01DX005 (ip), vehicle: Klucel (hydroxypropylcellulose) (HPC)) 92 % of control; (dose: 120.0 mg/kg/injection, schedule: Q01DX005 (ip), vehicle: Klucel (hydroxypropylcellulose) (HPC)) 91 % of control; (dose: 240.0 mg/kg/injection, schedule: Q01DX005 (ip), vehicle: Klucel (hydroxypropylcellulose) (HPC)) 94 % of control.
As to `O=C1C(O)=C(O)C(=O)c2ccccc21`, under setting [9], the T/C was 90 % of control.
Regarding `N=C(N)c1ccc2[nH]c(/C=C/c3cc4ccc(C(=N)N)cc4o3)cc2c1`, for the setting “dose: 100.0 mg/kg/injection, schedule: Q04DX003 (ip), vehicle: suspension in saline”, the T/C is 170 % of control.
Turning to `CN(C)c1nc2c(N)ncnc2n1C1OC(CO)C(O)C1O` (stereo not drawn), the T/C reads like this: under setting [1], 100 % of control and 106 % of control; under setting [2], 103 % of control and 106 % of control; under setting [4], 112 % of control and 113 % of control; under setting [5], 123 % of control.
As to `CC(=O)NNC(=S)Nc1ccccc1`, the T/C was 100 % of control under setting [4], 101 % of control under setting [5] and 100 % of control under setting [6].
In the case of `CC1(C)CN(Cc2ccccc2)C2OC1N(Cc1ccccc1)CC2(C)C`, the T/C is, setting by setting: under setting [9], 102 % of control; under setting [10], 99 % of control; under setting [11], 96 % of control.
Consider `CC(C)C(Br)C(Br)c1ccccc1` (stereo not drawn), for which the T/C was 100 % of control under setting [12], 104 % of control under setting [13] and 104 % of control under setting [14].
Consider `CCOC(=O)C1CSC2(CC(C)CC(C)(C)C2)N1` (stereo not drawn), for which the T/C reads like this: under setting [4], 106 % of control; under setting [5], 107 % of control; under setting [6], 104 % of control.
As for `CC(C)(C)C(=O)CC(=O)C(F)(F)C(F)(F)C(F)(F)F.CC(C)(C)C(=O)CC(=O)C(F)(F)C(F)(F)C(F)(F)F.CC(C)(C)C(=O)CC(=O)C(F)(F)C(F)(F)C(F)(F)F.[Er]`, the T/C is 97 % of control under setting [10]; 95 % of control under setting [11]; 112 % of control (dose: 400.0 mg/kg/injection, schedule: Q01DX009 (ip), vehicle: Klucel (hydroxypropylcellulose) (HPC)).
On to `Cc1[nH]c(N)nc(=S)c1CCCOc1ccc([N+](=O)[O-])cc1`, for which the T/C was 99 % of control under setting [3], 93 % of control under setting [7] and 97 % of control under setting [8].
For the compound `Cc1c2ccncc2cc2c1[nH]c1ccccc12`, the T/C was 160 % of control (dose: 50.0 mg/kg/injection, schedule: Q04DX003 (ip), vehicle: saline with Tween-80) and 209 % of control (dose: 66.0 mg/kg/injection, schedule: Q04DX003 (ip), vehicle: saline with Tween-80).
With `Cn1cnc2cc(N3CCOCC3)c([N+](=O)[O-])cc2c1=O`, the T/C was 105 % of control (dose: 100.0 mg/kg/injection, schedule: Q04DX003 (ip), vehicle: Klucel (hydroxypropylcellulose) (HPC)); 112 % of control (dose: 200.0 mg/kg/injection, schedule: Q04DX003 (ip), vehicle: Klucel (hydroxypropylcellulose) (HPC)); 95 % of control (dose: 400.0 mg/kg/injection, schedule: Q04DX003 (ip), vehicle: Klucel (hydroxypropylcellulose) (HPC)).
For `c1ccc2c(c1)cc1c3nncn3ncn21`, the T/C (dose: 12.5 mg/kg/injection, schedule: Q01DX009 (ip), vehicle: saline with Tween-80) is 100 % of control; the T/C (dose: 25.0 mg/kg/injection, schedule: Q01DX009 (ip), vehicle: saline with Tween-80) was 92 % of control; the T/C under setting [12] was 93 % of control.
As to `CN(CNC(N)=O)N=O`, the T/C (dose: 50.0 mg/kg/injection, schedule: Q01DX009 (ip), vehicle: water) is 99 % of control; the T/C (dose: 100.0 mg/kg/injection, schedule: Q01DX009 (ip), vehicle: water) is 108 % of control; the T/C (dose: 200.0 mg/kg/injection, schedule: Q01DX009 (ip), vehicle: water) is 107 % of control.
On to `FC(F)(F)C(F)(F)C(F)(F)C(F)(F)C(F)(F)C(F)(F)C[CH2][Sn]([Br])([Br])[CH2]CC(F)(F)C(F)(F)C(F)(F)C(F)(F)C(F)(F)C(F)(F)F`, for which the T/C was 109 % of control under setting [3], 105 % of control under setting [7] and 108 % of control under setting [8].
Take `CN(C)c1ccc(/C=C/c2ccc3c(c2)OCO3)cc1`: the T/C reads like this: under setting [9], 98 % of control; under setting [10], 95 % of control; under setting [11], 98 % of control.
Turning to `CC(C(=O)O)c1ccc(C(=O)c2cccs2)cc1` (stereo not drawn), the T/C was 97 % of control under setting [12], 97 % of control under setting [13] and 97 % of control under setting [14].
As for `C[S+](C)CCC[S+](C)C`, the T/C was 105 % of control under setting [15], 99 % of control under setting [16] and 105 % of control under setting [17].
On to `N=C(N)n1ncc2c1CCCC2=O`, for which the T/C by setting is: under setting [3], 100 % of control; under setting [7], 105 % of control; under setting [8], 96 % of control.
Turning to `BrCCC1CO1` (stereo not drawn), the T/C was 98 % of control under setting [15], 100 % of control under setting [16] and 117 % of control under setting [17].
For `C=CCN=C(N)S[As]1c2ccccc2Oc2ccccc21`, the T/C is 100 % of control under setting [15], 98 % of control under setting [16] and 102 % of control under setting [17].
As to `COc1ccc(-c2cnc(C(N)=O)c(=O)[nH]2)cc1`, the T/C is, setting by setting: (dose: 100.0 mg/kg/injection, schedule: Q04DX003 (ip), vehicle: saline with Tween-80) 104 % of control; (dose: 200.0 mg/kg/injection, schedule: Q04DX003 (ip), vehicle: saline with Tween-80) 95 % of control; (dose: 400.0 mg/kg/injection, schedule: Q04DX003 (ip), vehicle: saline with Tween-80) 100 % of control.
With `C=C(C(=O)OC)C1C=CCCCC1` (stereo not drawn), the T/C by setting is: (dose: 100.0 mg/kg/injection, schedule: Q01DX001 (ip), vehicle: saline with Tween-80) 114 % of control; (dose: 200.0 mg/kg/injection, schedule: Q01DX001 (ip), vehicle: saline with Tween-80) 113 % of control; (dose: 400.0 mg/kg/injection, schedule: Q01DX001 (ip), vehicle: saline with Tween-80) 105 % of control.
As for `Cc1cc(C2(c3cc(C)c(O)c(C)c3)CC3CCC2C3)cc(C)c1O` (stereo not drawn), the T/C was 88 % of control under setting [9], 97 % of control under setting [10] and 93 % of control under setting [11].
